Laboratory results taken from patent publication US20200085839A1, “COMBINATION OF IMMUNOTHERAPEUTICS AND BISFLUOROALKYL-1,4-BENZODIAZEPINONE COMPOUNDS FOR TREATING LYMPHOMAS” (Ayala Pharmaceuticals Inc., priority 2018, published 2020).

How the values were obtained:
[1] = tested on: […] cell lines, comprising 9 subtypes of lymphomas; experiment: Cell surface BCMA by FACS, lymphoma cell line panel; type: cell-based, human
Method: (§1) […] cell lines, comprising 9 subtypes of lymphomas (see Table 1), were seeded at 1×10^5 cells/well in a total volume of 250 μl into a 96-well plate. The cells were cultured in RPMI medium supplemented with 10% FCS. Compound (22) was added to the cell cultures at a concentration of 10 μM, 1 μM, 100 nM, 10 nM, 1 nM, 100 pM, 10 pM, 1 pM, and 100 fM, and cell lines (8 from Hadassah Medical Center, 31 from Eurofins) were incubated at 37° C. for 24 hours with Compound (22). Following incubation, the cells were collected and BCMA levels were evaluated on the cell surface for cell-bound BCMA. Cells were stained with an anti-BCMA antibody (PE anti-human 19F2 BCMA, Biolegend), and cell surface BCMA levels were determined by FACS analysis (Mean Fluorescence Intensity. Soluble BCMA levels were analyzed by ELISA (Human BCMA/TNFRSF17 DuoSet kit: R&D Systems).

[2] = tested on: DB cells (DLBCL); experiment: Soluble (shed) BCMA by ELISA; type: cell-based, human
Method: as §1

[3] = tested on: SUDHL-8 cells (DLBCL); experiment: Soluble (shed) BCMA by ELISA; type: cell-based, human
Method: as §1

[4] = tested on: U937 cells (Histiocytic Lymphoma); experiment: Soluble (shed) BCMA by ELISA; type: cell-based, human
Method: as §1

[5] = tested on: SUDHL-4 (Eurofins) cells (DLBCL); experiment: Soluble (shed) BCMA by ELISA; type: cell-based, human
Method: as §1

[6] = tested on: BC-1 cells (B-cell Lymphoma); experiment: Soluble (shed) BCMA by ELISA; type: cell-based, human
Method: as §1

[7] = tested on: GA-10 cells (Burkitt's Lymphoma); experiment: Soluble (shed) BCMA by ELISA; type: cell-based, human
Method: as §1

[8] = tested on: MHHH-PREB-1 cells (B-cell Lymphoma); experiment: Soluble (shed) BCMA by ELISA; type: cell-based, human
Method: as §1

[9] = tested on: Namalwa cells (Burkitt's Lymphoma); experiment: Soluble (shed) BCMA by ELISA; type: cell-based, human
Method: as §1

[10] = tested on: Daudi cells (Burkitt's Lymphoma); experiment: Soluble (shed) BCMA by ELISA; type: cell-based, human
Method: as §1

[11] = tested on: BCP-1 cells (B-cell Lymphoma); experiment: Soluble (shed) BCMA by ELISA; type: cell-based, human
Method: as §1

[12] = tested on: REC-1 cells (Mantle Cell Lymphoma); experiment: Soluble (shed) BCMA by ELISA; type: cell-based, human
Method: as §1

[13] = tested on: TUR cells (Histiocytic Lymphoma); experiment: Soluble (shed) BCMA by ELISA; type: cell-based, human
Method: as §1

[14] = tested on: MC-116 cells (B-cell Lymphoma); experiment: Soluble (shed) BCMA by ELISA; type: cell-based, human
Method: as §1

[15] = tested on: Multiple Myeloma; experiment: Anti-tumor activity of CAR-BCMA T cells and Compound (1) in patients; type: in vivo, human; settings: CAR-BCMA T cells with a composition comprising Compound (1)
Method: All patients receive 3 doses of 300 mg/m^2 cyclophosphamide and 3 doses of 30 mg/m^2 fludarabine. Chemotherapy is administered because recipient leukocyte depletion enhances the activity of adoptively transferred T cells. Both chemotherapy agents are administered daily on days −5, −4, and −3 before CAR-BCMA T-cell infusion on day 0. CAR-BCMA T cells are administered to each patient with a composition comprising Compound (1). The dose escalation plan calls for an initial dose of 0.3×10^6 CAR^+ T cells/kg with threefold increases to each subsequent dose level.
Myeloma staging is conducted according to the International Uniform Response Criteria for Multiple Myeloma. Toxicity is graded by the Common Terminology Criteria for Adverse Events version 4.02. Two weeks, 1 month, 2 months, 3 months, and 6 months after CAR-BCMA infusion, MM is assessed with standard staging tests.
Autologous peripheral blood mononuclear cells (PBMCs) are cultured with an anti-CD3 monoclonal antibody to induce T-cell proliferation. The cells are transduced with the γ-retroviral vector that encodes that CAR, and 9 days after the initiation of cultures, CAR-BCMA T cells are infused.
CAR-BCMA T cells are detected by flow cytometry after staining with a phycoerythrin-labeled BCMA constant-fragment reagent (PE-BCMA-Fc). CAR-BCMA T cells are also detected by performing quantitative PCR (qPCR). […]

[16] = Homo sapiens, read-out: Shed BCMA (pg/ml) EC50

Cc1cccc2c1NC(=O)[C@@H](NC(=O)[C@H](CCC(F)(F)F)[C@H](CCC(F)(F)F)C(N)=O)N=C2c1cccc(F)c1 [Compound (22), (2R,3S)—N-((3S)-5-(3-fluorophenyl)-9-methyl-2-oxo-2,3-dihydro-1H-1,4-benzodiazepin-3-yl)-2,3-bis(3,3,3-trifluoropropyl)succinamide]
cell-bound BCMA levels ([1]; B-ALL, histiocytic lymphoma, anaplastic large cell lymphoma, cutaneous T-cell lymphoma cell lines): did not increase cell-bound BCMA levels | cell-bound BCMA levels ([1]; cell lines derived from Mantle Cell Lymphoma, DLBCL, Burkitt's Lymphoma, B-cell Lymphoma, 24 h): increased cell-bound BCMA levels | cell-bound BCMA levels ([1]; cell lines from Hodgkin's Lymphoma patients): increased cell-bound BCMA levels | increase of BCMA expression ([1]; certain lymphomas): Compound (22) increases BCMA expression in certain lymphomas by 2-9 fold | mBCMA ([1]; certain lymphomas): increases mBCMA | Shed BCMA (pg/ml) % Reduction [2]: 100% | soluble BCMA 1 nM Compound (22) ([2]; 1 nM, 24 h): 270.5 | soluble BCMA 10 nM Compound (22) ([2]; 10 nM, 24 h): 40.5 | soluble BCMA ([2]; FIG. 9B): decreased soluble BCMA | EC50 [2, 16]: 1 nM | Shed BCMA (pg/ml) % Reduction [3]: 100% | EC50 ([3]; Homo sapiens, SU-DHL-8, read-out: Shed BCMA (pg/ml) EC50): 0.5 nM | Shed BCMA (pg/ml) % Reduction [4]: BLQ | EC50 ([4]; Homo sapiens, U-937, read-out: Shed BCMA (pg/ml) EC50): > 10000 nM | Shed BCMA (pg/ml) % Reduction [5]: 87% | EC50 ([5]; Homo sapiens, SU-DHL-4, read-out: Shed BCMA (pg/ml) EC50): 6.6 nM | Shed BCMA (pg/ml) % Reduction [6]: 30% | soluble BCMA 1 nM Compound (22) ([6]; 1 nM, 24 h): >2000 | soluble BCMA 10 nM Compound (22) ([6]; 10 nM, 24 h): 1841.6 | soluble BCMA 100 nM Compound (22) ([6]; 100 nM, 24 h): 878.6 | EC50 ([6]; Homo sapiens, BC1, read-out: Shed BCMA (pg/ml) EC50): 84 nM | Shed BCMA (pg/ml) % Reduction [7]: 83% | soluble BCMA 1 nM Compound (22) ([7]; 1 nM, 24 h): >2000 | soluble BCMA 10 nM Compound (22) ([7]; 10 nM, 24 h): 800.8 | soluble BCMA 100 nM Compound (22) ([7]; 100 nM, 24 h): 398.1 | EC50 [7, 16]: 7.4 nM | Shed BCMA (pg/ml) % Reduction [8]: 97% | soluble BCMA 1 nM Compound (22) ([8]; 1 nM, 24 h): 227.3 | soluble BCMA 10 nM Compound (22) ([8]; 10 nM, 24 h): 75.4 | soluble BCMA 100 nM Compound (22) ([8]; 100 nM, 24 h): 60.1 | EC50 ([8]; Homo sapiens, B-cell, read-out: Shed BCMA (pg/ml) EC50): 0.6 nM | EC50 ([9]; Homo sapiens, Namalwa, read-out: Shed BCMA (pg/ml) EC50): 0.6 nM | soluble BCMA 10 nM Compound (22) ([9]; NAMALWA, 10 nM, 24 h): 66.6 | Shed BCMA (pg/ml) % Reduction ([9]; Namalwa): 95% | soluble BCMA 1 nM Compound (22) ([9]; Namalwa, 1 nM, 24 h): 87.5 | soluble BCMA 100 nM Compound (22) ([9]; Namalwa, 100 nM, 24 h): 67.4 | Shed BCMA (pg/ml) % Reduction [10]: 100% | soluble BCMA 1 nM Compound (22) ([10]; 1 nM, 24 h): 162.6 | soluble BCMA 10 nM Compound (22) ([10]; 10 nM, 24 h): 36.8 | soluble BCMA ([10]; FIG. 7B): decreased soluble BCMA | EC50 [10, 16]: 0.5 nM | Shed BCMA (pg/ml) % Reduction [11]: 94% | soluble BCMA 1 nM Compound (22) ([11]; 1 nM, 24 h): 1665.7 | soluble BCMA 10 nM Compound (22) ([11]; 10 nM, 24 h): 1610 pg/mL | soluble BCMA 100 nM Compound (22) ([11]; 100 nM, 24 h): 460.6 | soluble BCMA ([11]; FIG. 6B): decreased soluble BCMA | EC50 [11, 16]: 48 nM | Shed BCMA (pg/ml) % Reduction [12]: BLQ | EC50 ([12]; Homo sapiens, Rec1, read-out: Shed BCMA (pg/ml) EC50): > 10000 nM | Shed BCMA (pg/ml) % Reduction [13]: BLQ | EC50 [13, 16]: > 10000 nM | EC50 ([14]; Homo sapiens, MC116, MC-116, read-out: Shed BCMA (pg/ml) EC50): 6.5 nM | soluble BCMA 1 nM Compound (22) ([14]; MC116, 1 nM, 24 h): 1810.6 | soluble BCMA 10 nM Compound (22) ([14]; MC116, 10 nM, 24 h): 414.8 | soluble BCMA 100 nM Compound (22) ([14]; MC116, 100 nM, 24 h): 303.7 | Shed BCMA (pg/ml) % Reduction ([14]; MC-116): 76%

CN1C(=O)[C@@H](NC(=O)[C@H](CCC(F)(F)F)[C@H](CCC(F)(F)F)C(N)=O)N=C(c2ccccc2)c2ccccc21 [Compound 1, (2R,3S)—N-((3S)-1-methyl-2-oxo-5-phenyl-2,3-dihydro-1H-1,4-benzodiazepin-3-yl)-2,3-bis(3,3,3-trifluoropropyl)succinamide]
anti-tumor response [15]: improved anti-tumor response compared to either BCMA targeted CAR-T or Compound (1) treatment alone
